In the NIST ThermoML archive (doi:10.1021/je200721d):
Numbers after ± are expanded uncertainties.

Test: xn = mol fraction of the nth substance listed
Conditions: Liquid, Vibrating tube method

With `CCCCCCCC` [octane] + CCCCCC as the compound, how does the mass density (333.01 K, 7000 kPa, x2 = 0.9308) read?
The mass density was 636.74 ± 0.33 kg/m3.

What about the mass density (333.01 K, 8000 kPa, x2 = 0.9308) of the same compound?
Its mass density is 638.01 ± 0.34 kg/m3.

And the mass density (333.01 K, 9000 kPa, x2 = 0.9308)?
The mass density was 639.26 ± 0.35 kg/m3.

And the mass density (333.01 K, 10000 kPa, x2 = 0.9308)?
Its mass density is 640.48 ± 0.36 kg/m3.

What about the mass density (333.01 K, 11000 kPa, x2 = 0.9308) of the same compound?
The mass density was 641.7 ± 0.37 kg/m3.

And the mass density (333.01 K, 12000 kPa, x2 = 0.9308)?
Its mass density is 642.89 ± 0.38 kg/m3.

And the mass density (333.01 K, 13000 kPa, x2 = 0.9308)?
The mass density was 644.06 ± 0.39 kg/m3.

What about the mass density (333.01 K, 14000 kPa, x2 = 0.9308) of the same compound?
The mass density was 645.22 ± 0.4 kg/m3.

And the mass density (333.01 K, 15000 kPa, x2 = 0.9308)?
Its mass density is 646.35 ± 0.41 kg/m3.

What about the mass density (333.01 K, 16000 kPa, x2 = 0.9308) of the same compound?
The mass density was 647.46 ± 0.42 kg/m3.

And the mass density (333.01 K, 17000 kPa, x2 = 0.9308)?
The mass density was 648.54 ± 0.43 kg/m3.

What about the mass density (333.01 K, 18000 kPa, x2 = 0.9308) of the same compound?
The mass density was 649.61 ± 0.44 kg/m3.

And the mass density (333.01 K, 19000 kPa, x2 = 0.9308)?
Its mass density is 650.63 ± 0.45 kg/m3.

And the mass density (333.01 K, 20000 kPa, x2 = 0.9308)?
The mass density was 651.64 ± 0.46 kg/m3.

And the mass density (333.01 K, 21000 kPa, x2 = 0.9308)?
The mass density was 652.62 ± 0.47 kg/m3.

What about the mass density (333.01 K, 22000 kPa, x2 = 0.9308) of the same compound?
Its mass density is 653.55 ± 0.48 kg/m3.

What about the mass density (333.01 K, 23000 kPa, x2 = 0.9308) of the same compound?
Its mass density is 654.5 ± 0.49 kg/m3.

What about the mass density (333.01 K, 24000 kPa, x2 = 0.9308) of the same compound?
The mass density was 655.39 ± 0.51 kg/m3.

What about the mass density (333.01 K, 25000 kPa, x2 = 0.9308) of the same compound?
The mass density was 656.28 ± 0.52 kg/m3.

What about the mass density (333.02 K, 1000 kPa, x2 = 0.1654) of the same compound?
The mass density was 665.79 ± 0.26 kg/m3.

What about the mass density (333.02 K, 1000 kPa, x2 = 0.7995) of the same compound?
The mass density was 637.16 ± 0.28 kg/m3.

And the mass density (333.02 K, 2000 kPa, x2 = 0.1654)?
The mass density was 666.85 ± 0.27 kg/m3.

What about the mass density (333.02 K, 2000 kPa, x2 = 0.7995) of the same compound?
Its mass density is 638.39 ± 0.28 kg/m3.

And the mass density (333.02 K, 3000 kPa, x2 = 0.1654)?
The mass density was 667.91 ± 0.28 kg/m3.

And the mass density (333.02 K, 3000 kPa, x2 = 0.7995)?
Its mass density is 639.63 ± 0.29 kg/m3.

What about the mass density (333.02 K, 4000 kPa, x2 = 0.1654) of the same compound?
Its mass density is 668.97 ± 0.29 kg/m3.

And the mass density (333.02 K, 4000 kPa, x2 = 0.7995)?
Its mass density is 640.91 ± 0.3 kg/m3.

What about the mass density (333.02 K, 5000 kPa, x2 = 0.1654) of the same compound?
The mass density was 670.04 ± 0.29 kg/m3.

And the mass density (333.02 K, 5000 kPa, x2 = 0.7995)?
The mass density was 642.14 ± 0.31 kg/m3.

And the mass density (333.02 K, 6000 kPa, x2 = 0.1654)?
Its mass density is 671.11 ± 0.3 kg/m3.

What about the mass density (333.02 K, 6000 kPa, x2 = 0.7995) of the same compound?
Its mass density is 643.37 ± 0.32 kg/m3.

What about the mass density (333.02 K, 7000 kPa, x2 = 0.1654) of the same compound?
The mass density was 672.17 ± 0.31 kg/m3.

What about the mass density (333.02 K, 7000 kPa, x2 = 0.7995) of the same compound?
The mass density was 644.6 ± 0.33 kg/m3.

And the mass density (333.02 K, 8000 kPa, x2 = 0.1654)?
Its mass density is 673.21 ± 0.32 kg/m3.

And the mass density (333.02 K, 8000 kPa, x2 = 0.7995)?
The mass density was 645.81 ± 0.34 kg/m3.

And the mass density (333.02 K, 9000 kPa, x2 = 0.1654)?
The mass density was 674.28 ± 0.33 kg/m3.

What about the mass density (333.02 K, 9000 kPa, x2 = 0.7995) of the same compound?
The mass density was 647.01 ± 0.35 kg/m3.

What about the mass density (333.02 K, 10000 kPa, x2 = 0.1654) of the same compound?
Its mass density is 675.32 ± 0.34 kg/m3.

And the mass density (333.02 K, 10000 kPa, x2 = 0.7995)?
The mass density was 648.19 ± 0.36 kg/m3.

What about the mass density (333.02 K, 11000 kPa, x2 = 0.1654) of the same compound?
The mass density was 676.36 ± 0.34 kg/m3.

What about the mass density (333.02 K, 11000 kPa, x2 = 0.7995) of the same compound?
Its mass density is 649.36 ± 0.37 kg/m3.

And the mass density (333.02 K, 12000 kPa, x2 = 0.1654)?
The mass density was 677.38 ± 0.35 kg/m3.

What about the mass density (333.02 K, 12000 kPa, x2 = 0.7995) of the same compound?
Its mass density is 650.5 ± 0.38 kg/m3.

And the mass density (333.02 K, 13000 kPa, x2 = 0.1654)?
The mass density was 678.38 ± 0.36 kg/m3.

And the mass density (333.02 K, 13000 kPa, x2 = 0.7995)?
The mass density was 651.63 ± 0.39 kg/m3.

And the mass density (333.02 K, 14000 kPa, x2 = 0.1654)?
The mass density was 679.38 ± 0.37 kg/m3.

What about the mass density (333.02 K, 14000 kPa, x2 = 0.7995) of the same compound?
The mass density was 652.74 ± 0.4 kg/m3.

What about the mass density (333.02 K, 15000 kPa, x2 = 0.1654) of the same compound?
The mass density was 680.34 ± 0.38 kg/m3.

What about the mass density (333.02 K, 15000 kPa, x2 = 0.7995) of the same compound?
Its mass density is 653.84 ± 0.4 kg/m3.

What about the mass density (333.02 K, 16000 kPa, x2 = 0.1654) of the same compound?
The mass density was 681.29 ± 0.39 kg/m3.

What about the mass density (333.02 K, 16000 kPa, x2 = 0.7995) of the same compound?
Its mass density is 654.91 ± 0.41 kg/m3.

What about the mass density (333.02 K, 17000 kPa, x2 = 0.1654) of the same compound?
Its mass density is 682.26 ± 0.4 kg/m3.

What about the mass density (333.02 K, 17000 kPa, x2 = 0.7995) of the same compound?
Its mass density is 655.95 ± 0.42 kg/m3.

And the mass density (333.02 K, 18000 kPa, x2 = 0.1654)?
The mass density was 683.15 ± 0.41 kg/m3.

And the mass density (333.02 K, 18000 kPa, x2 = 0.7995)?
The mass density was 656.97 ± 0.43 kg/m3.

And the mass density (333.02 K, 19000 kPa, x2 = 0.1654)?
The mass density was 684.04 ± 0.41 kg/m3.

What about the mass density (333.02 K, 19000 kPa, x2 = 0.7995) of the same compound?
Its mass density is 657.98 ± 0.44 kg/m3.

And the mass density (333.02 K, 20000 kPa, x2 = 0.1654)?
Its mass density is 684.93 ± 0.42 kg/m3.

And the mass density (333.02 K, 20000 kPa, x2 = 0.7995)?
Its mass density is 658.95 ± 0.45 kg/m3.

And the mass density (333.02 K, 21000 kPa, x2 = 0.1654)?
Its mass density is 685.79 ± 0.43 kg/m3.

What about the mass density (333.02 K, 21000 kPa, x2 = 0.7995) of the same compound?
The mass density was 659.91 ± 0.46 kg/m3.

What about the mass density (333.02 K, 22000 kPa, x2 = 0.1654) of the same compound?
Its mass density is 686.62 ± 0.44 kg/m3.

What about the mass density (333.02 K, 22000 kPa, x2 = 0.7995) of the same compound?
Its mass density is 660.83 ± 0.47 kg/m3.

What about the mass density (333.02 K, 23000 kPa, x2 = 0.1654) of the same compound?
The mass density was 687.45 ± 0.45 kg/m3.

And the mass density (333.02 K, 23000 kPa, x2 = 0.7995)?
Its mass density is 661.72 ± 0.48 kg/m3.

What about the mass density (333.02 K, 24000 kPa, x2 = 0.1654) of the same compound?
Its mass density is 688.25 ± 0.46 kg/m3.

What about the mass density (333.02 K, 24000 kPa, x2 = 0.7995) of the same compound?
Its mass density is 662.6 ± 0.49 kg/m3.

And the mass density (333.02 K, 25000 kPa, x2 = 0.1654)?
The mass density was 689.01 ± 0.47 kg/m3.

What about the mass density (333.02 K, 25000 kPa, x2 = 0.7995) of the same compound?
The mass density was 663.44 ± 0.51 kg/m3.

And the mass density (333.04 K, 1000 kPa, x2 = 0.2199)?
The mass density was 663.81 ± 0.26 kg/m3.

What about the mass density (333.04 K, 2000 kPa, x2 = 0.2199) of the same compound?
The mass density was 664.87 ± 0.27 kg/m3.

What about the mass density (333.04 K, 3000 kPa, x2 = 0.2199) of the same compound?
The mass density was 665.96 ± 0.28 kg/m3.

And the mass density (333.04 K, 4000 kPa, x2 = 0.2199)?
Its mass density is 667.04 ± 0.29 kg/m3.

What about the mass density (333.04 K, 5000 kPa, x2 = 0.2199) of the same compound?
The mass density was 668.13 ± 0.29 kg/m3.

What about the mass density (333.04 K, 6000 kPa, x2 = 0.2199) of the same compound?
The mass density was 669.19 ± 0.3 kg/m3.

And the mass density (333.04 K, 7000 kPa, x2 = 0.2199)?
The mass density was 670.26 ± 0.31 kg/m3.

What about the mass density (333.04 K, 8000 kPa, x2 = 0.2199) of the same compound?
The mass density was 671.36 ± 0.32 kg/m3.

What about the mass density (333.04 K, 9000 kPa, x2 = 0.2199) of the same compound?
The mass density was 672.39 ± 0.33 kg/m3.

What about the mass density (333.04 K, 10000 kPa, x2 = 0.2199) of the same compound?
Its mass density is 673.44 ± 0.34 kg/m3.

What about the mass density (333.04 K, 11000 kPa, x2 = 0.2199) of the same compound?
Its mass density is 674.49 ± 0.35 kg/m3.

What about the mass density (333.04 K, 12000 kPa, x2 = 0.2199) of the same compound?
Its mass density is 675.5 ± 0.35 kg/m3.

And the mass density (333.04 K, 13000 kPa, x2 = 0.2199)?
Its mass density is 676.53 ± 0.36 kg/m3.

What about the mass density (333.04 K, 14000 kPa, x2 = 0.2199) of the same compound?
Its mass density is 677.53 ± 0.37 kg/m3.

What about the mass density (333.04 K, 15000 kPa, x2 = 0.2199) of the same compound?
Its mass density is 678.51 ± 0.38 kg/m3.

And the mass density (333.04 K, 16000 kPa, x2 = 0.2199)?
Its mass density is 679.46 ± 0.39 kg/m3.

What about the mass density (333.04 K, 17000 kPa, x2 = 0.2199) of the same compound?
The mass density was 680.4 ± 0.4 kg/m3.

And the mass density (333.04 K, 18000 kPa, x2 = 0.2199)?
The mass density was 681.32 ± 0.41 kg/m3.

And the mass density (333.04 K, 19000 kPa, x2 = 0.2199)?
Its mass density is 682.23 ± 0.42 kg/m3.

What about the mass density (333.04 K, 20000 kPa, x2 = 0.2199) of the same compound?
Its mass density is 683.09 ± 0.43 kg/m3.

And the mass density (333.04 K, 21000 kPa, x2 = 0.2199)?
Its mass density is 683.96 ± 0.43 kg/m3.

And the mass density (333.04 K, 22000 kPa, x2 = 0.2199)?
Its mass density is 684.8 ± 0.44 kg/m3.

And the mass density (333.04 K, 23000 kPa, x2 = 0.2199)?
The mass density was 685.61 ± 0.45 kg/m3.

And the mass density (333.04 K, 24000 kPa, x2 = 0.2199)?
Its mass density is 686.43 ± 0.46 kg/m3.

And the mass density (333.04 K, 25000 kPa, x2 = 0.2199)?
Its mass density is 687.22 ± 0.47 kg/m3.
